Data on 1 compound can be found in patent US20040076673A1, “Oral pharmaceutical composition containing a block copolymer” (priority 2000, published 2004).

≈ marks a conversion by molar mass, not a printed value.

One data set is described as follows: Solubility Measurements. Format: physicochemical.
Data set [1] can be described thus: pH shift dissolution method (0.1N HCl, then shift to pH 6.5). The class given is physicochemical. As to conditions: in vitro tests; with block copolymers versus without. How it is done:
pH Shift Dissolution Method
The formulations were weighed into hard gelatin capsules (equivalent to 25 mg drug) and dissoluted in 500 ml 0.1N HCl for one hour at 37° C. (paddle speed 100 rpm). A 5 ml sample was taken at 55 minutes and the media replaced. After one hour 10 ml of a 2.5M KH2PO4/16.72% (w/v) NaOH solution was added to the HCl to shift the pH to 6.5. 5 ml samples were then removed with a plastic syringe at 5, 15, 30, 45 and 60 minutes and media replaced after every sampling time point. Each sample was centrifuged (14,000 rpm) at ambient temperature for 15 minutes and then analysed by HPLC using the following conditions: […]

On to `O=C(c1ccc(-c2ccncc2)cc1)N1CCN(S(=O)(=O)c2ccc3cc(Cl)ccc3c2)CC1` [Compound 1, 1-(6-chloronaphth-2-ylsulfonyl)-4-[4-(4-pyridyl)benzoyl] piperazine], for which the solubility (commonly how much of the substance goes into solution per volume) in “Solubility Measurements” (pH 1.2, simulated gastric fluid) is 250 µg/mL (≈ 508 µM); in “Solubility Measurements” (pH 6.8, aqueous buffer), 2 µg/mL (≈ 4.07 µM); in “Solubility Measurements” (water) it was less than 5 µg/mL. For the same compound, the “improvement of maximum supersaturated concentration by use of the polymers” value in data set [1] is 4-10 times.
